We go through two compounds from patent US5612327A, “1α,24-(OH)2 -cholecalciferol emulsion composition and method for treating psoriasis” (priority 1993, dated 1997).

A short description of data set [1]: Solubility and chemical stability of 1α,24-(OH)2 --V.D3. The class given is physicochemical. Particulars: non-polar solvent.
Data set [2] has as its system excised skin (full skin) of Wistar rat. In words: Skin permeability of active ingredient from cream composition. Type of data set: in vitro ADME. Particulars: 0.25 part by weight in bases of Examples 1, 4, 5 and Control Examples 14 to 21; Test Method 3. The text has this:
For the skin, use was made of skin cut off from a dilapidated Wistar rat (full skin=including stratum corneum, epidermis, and dermis). For the reservoir solution, use was made of Hanks buffer (pH=7.4) plus 10% bovine fetal serum. […] (For the method of assay, see below.)

Each structure is given as a SMILES string.

Turning to `C=C1C(=CC=C2CCCC3(C)C2CCC3C(C)CCC(O)C(C)C)CC(O)CC1O` (stereo not drawn) [1α,24-(OH)2 --V.D3, 1α,24-dihydroxylcholecalciferol], in data set [1], the “Solubility (in words)” value was “does not dissolve much at all in a non-polar solvent”.

Take `CC(=O)OCC(=O)[C@@]1(O)CC[C@H]2[C@@H]3CCC4=CC(=O)CC[C@]4(C)[C@H]3[C@@H](O)C[C@@]21C` [hydrocortisone acetate]: the “Skin permeability of hydrocortisone acetate (in words)” value in data set [2] was “almost completely unrelated to the weight ratio of the stearyl alcohol and cetyl alcohol”.
